Laboratory results taken from article PMC3523469 (Investigational New Drugs, 2012).
Where two headings read alike, the source gives them in different places.

Assay type: in vivo, Japanese patients

SMILES: COc1cc2ncnc(Nc3ccc(F)c(Cl)c3)c2cc1NC(=O)/C=C/CN1CCCCC1 [dacomitinib, Dacomitinib]
- Nausea, number of patients with treatment-related AE (15 mg QD (n = 3), G3): 0
- Palmar–plantar erythrodysesthesia, number of patients with treatment-related AE (15 mg QD (n = 3), G3): 0
- Paronychia, number of patients with treatment-related AE (15 mg QD (n = 3), G3): 0
- Proteinuria, number of patients with treatment-related AE (15 mg QD (n = 3), G3): 0
- Rash, number of patients with treatment-related AE (15 mg QD (n = 3), G3): 0
- Skin fissures, number of patients with treatment-related AE (15 mg QD (n = 3), G3): 0
- Stomatitis, number of patients with treatment-related AE (15 mg QD (n = 3), G3): 0
- Weight decreased, number of patients with treatment-related AE (15 mg QD (n = 3), G3): 0
- Alanine aminotransferase increased, number of patients with treatment-related AE (30 mg QD (n = 3), All): 0
- Aspartate aminotransferase increased, number of patients with treatment-related AE (30 mg QD (n = 3), All): 0
- Blood bilirubin increased, number of patients with treatment-related AE (30 mg QD (n = 3), All): 0
- Cheilitis, number of patients with treatment-related AE (30 mg QD (n = 3), All): 1
- Conjunctivitis, number of patients with treatment-related AE (30 mg QD (n = 3), All): 1
- Decreased appetite, number of patients with treatment-related AE (30 mg QD (n = 3), All): 1
- Diarrhea, number of patients with treatment-related AE (30 mg QD (n = 3), All): 3
- Dry skin, number of patients with treatment-related AE (30 mg QD (n = 3), All): 1
- ECG QT prolonged, number of patients with treatment-related AE (30 mg QD (n = 3), All): 0
- Edema, number of patients with treatment-related AE (30 mg QD (n = 3), All): 0
- Fatigue, number of patients with treatment-related AE (30 mg QD (n = 3), All): 1
- Hematuria, number of patients with treatment-related AE (30 mg QD (n = 3), All): 0
- Hypertrichosis, number of patients with treatment-related AE (30 mg QD (n = 3), All): 0
- Leukopenia, number of patients with treatment-related AE (30 mg QD (n = 3), All): 0
- Nausea, number of patients with treatment-related AE (30 mg QD (n = 3), All): 1
- Palmar–plantar erythrodysesthesia, number of patients with treatment-related AE (30 mg QD (n = 3), All): 2
- Paronychia, number of patients with treatment-related AE (30 mg QD (n = 3), All): 2
- Proteinuria, number of patients with treatment-related AE (30 mg QD (n = 3), All): 0
- Rash, number of patients with treatment-related AE (30 mg QD (n = 3), All): 3
- Skin fissures, number of patients with treatment-related AE (30 mg QD (n = 3), All): 0
- Stomatitis, number of patients with treatment-related AE (30 mg QD (n = 3), All): 2
- Weight decreased, number of patients with treatment-related AE (30 mg QD (n = 3), All): 1
- Alanine aminotransferase increased, number of patients with treatment-related AE (30 mg QD (n = 3), G1): 0
- Aspartate aminotransferase increased, number of patients with treatment-related AE (30 mg QD (n = 3), G1): 0
- Blood bilirubin increased, number of patients with treatment-related AE (30 mg QD (n = 3), G1): 0
- Cheilitis, number of patients with treatment-related AE (30 mg QD (n = 3), G1): 1
- Conjunctivitis, number of patients with treatment-related AE (30 mg QD (n = 3), G1): 1
- Decreased appetite, number of patients with treatment-related AE (30 mg QD (n = 3), G1): 0
- Diarrhea, number of patients with treatment-related AE (30 mg QD (n = 3), G1): 3
- Dry skin, number of patients with treatment-related AE (30 mg QD (n = 3), G1): 0
- ECG QT prolonged, number of patients with treatment-related AE (30 mg QD (n = 3), G1): 0
- Edema, number of patients with treatment-related AE (30 mg QD (n = 3), G1): 0
- Fatigue, number of patients with treatment-related AE (30 mg QD (n = 3), G1): 0
- Hematuria, number of patients with treatment-related AE (30 mg QD (n = 3), G1): 0
- Hypertrichosis, number of patients with treatment-related AE (30 mg QD (n = 3), G1): 0
- Leukopenia, number of patients with treatment-related AE (30 mg QD (n = 3), G1): 0
- Nausea, number of patients with treatment-related AE (30 mg QD (n = 3), G1): 1
- Palmar–plantar erythrodysesthesia, number of patients with treatment-related AE (30 mg QD (n = 3), G1): 0
- Paronychia, number of patients with treatment-related AE (30 mg QD (n = 3), G1): 0
- Proteinuria, number of patients with treatment-related AE (30 mg QD (n = 3), G1): 0
- Rash, number of patients with treatment-related AE (30 mg QD (n = 3), G1): 1
- Skin fissures, number of patients with treatment-related AE (30 mg QD (n = 3), G1): 0
- Stomatitis, number of patients with treatment-related AE (30 mg QD (n = 3), G1): 1
- Weight decreased, number of patients with treatment-related AE (30 mg QD (n = 3), G1): 0
- Alanine aminotransferase increased, number of patients with treatment-related AE (30 mg QD (n = 3), G2): 0
- Aspartate aminotransferase increased, number of patients with treatment-related AE (30 mg QD (n = 3), G2): 0
- Blood bilirubin increased, number of patients with treatment-related AE (30 mg QD (n = 3), G2): 0
- Cheilitis, number of patients with treatment-related AE (30 mg QD (n = 3), G2): 0
- Conjunctivitis, number of patients with treatment-related AE (30 mg QD (n = 3), G2): 0
- Decreased appetite, number of patients with treatment-related AE (30 mg QD (n = 3), G2): 1
- Diarrhea, number of patients with treatment-related AE (30 mg QD (n = 3), G2): 0
- Dry skin, number of patients with treatment-related AE (30 mg QD (n = 3), G2): 1
- ECG QT prolonged, number of patients with treatment-related AE (30 mg QD (n = 3), G2): 0
- Edema, number of patients with treatment-related AE (30 mg QD (n = 3), G2): 0
- Fatigue, number of patients with treatment-related AE (30 mg QD (n = 3), G2): 1
- Hematuria, number of patients with treatment-related AE (30 mg QD (n = 3), G2): 0
- Hypertrichosis, number of patients with treatment-related AE (30 mg QD (n = 3), G2): 0
- Leukopenia, number of patients with treatment-related AE (30 mg QD (n = 3), G2): 0
- Nausea, number of patients with treatment-related AE (30 mg QD (n = 3), G2): 0
- Palmar–plantar erythrodysesthesia, number of patients with treatment-related AE (30 mg QD (n = 3), G2): 2
- Paronychia, number of patients with treatment-related AE (30 mg QD (n = 3), G2): 2
- Proteinuria, number of patients with treatment-related AE (30 mg QD (n = 3), G2): 0
- Rash, number of patients with treatment-related AE (30 mg QD (n = 3), G2): 2
- Skin fissures, number of patients with treatment-related AE (30 mg QD (n = 3), G2): 0
- Stomatitis, number of patients with treatment-related AE (30 mg QD (n = 3), G2): 1
- Weight decreased, number of patients with treatment-related AE (30 mg QD (n = 3), G2): 1
- Alanine aminotransferase increased, number of patients with treatment-related AE (30 mg QD (n = 3), G3): 0
- Aspartate aminotransferase increased, number of patients with treatment-related AE (30 mg QD (n = 3), G3): 0
- Blood bilirubin increased, number of patients with treatment-related AE (30 mg QD (n = 3), G3): 0
- Cheilitis, number of patients with treatment-related AE (30 mg QD (n = 3), G3): 0
- Conjunctivitis, number of patients with treatment-related AE (30 mg QD (n = 3), G3): 0
- Decreased appetite, number of patients with treatment-related AE (30 mg QD (n = 3), G3): 0
- Diarrhea, number of patients with treatment-related AE (30 mg QD (n = 3), G3): 0
